The nature of data set [1]: in vitro. Format: cell-based. Particulars: human, MRC-5 cells.
Data set [2] concerns Pseudomonas aeruginosa. Type of data set: cell-based. Particulars: 5 micrograms per ml.
The test system of data set [3] is Streptococcus pneumoniae. Type of data set: cell-based. Particulars: 5 micrograms per ml.
Data set [4] relates to MRSA. Particulars: 5 micrograms per ml.
Data set [5] in a line: in vitro. Particulars: human, CEM-SS cells.
Data set [6] is described as follows: in vitro. Particulars: human.
Method: HepG2-2.2.15 is a stable cell line containing the hepatitis B virus (HBV) ayw strain genome (ATCC Cat. No. CRL-11997). […] After 16-24 hours the confluent monolayer of HepG2-2.2.15 cells was washed and the medium was replaced with complete medium containing test peptide—10 micrograms per ml—in duplicate. […] Three days later the culture medium was replaced with fresh medium containing the peptide. Six days following the initial administration of the peptide, the cell culture supernatants was collected, treated with pronase and DNAse and then used in a real-time quantitative TaqMan PCR assay. The PCR-amplified HBV DNA was detected in real-time by monitoring increases in fluorescence signals that result from the exonucleolytic degradation of a quenched fluorescence probe molecule that hybridizes to the amplified HBV DNA. For each PCR amplification, a standard curve was simultaneously generated using dilutions of purified HBV DNA. Antiviral activity was calculated from the reduction in HBV DNA levels (% virus control). A novel dye uptake assay was then employed to measure cell viability, which is used to calculate toxicity (% cell control).

SMILES strings stand for the structures. Residues, ends and D or L forms follow the SMILES beside them.

Broadly, the viability is a read-out of living cells in per cent, often relative to untreated cells. Lower therefore signals more harm to the cells. In general, % inhibition refers to the drop in the measured response relative to a control, in per cent. The low end stands for little suppression, the high end for strong suppression. With `C[C@@H](O)[C@H](N)C(=O)N[C@@H](CCCCN)C(=O)N1CCC[C@H]1C(=O)N[C@@H](CCCNC(=N)N)C(=O)O` [Tuftsin, Thr-Lys-Pro-Arg-OH] (H-TKPR-OH), the viability at 144 h in data set [1] amounted to 100%. In addition, the “% inhibition” value in data set [2], in data set [3] and in data set [4] was 0.0% in each case. This compound also yielded a viability at 10 micrograms per ml in data set [5] of 100%. For the same compound, the viability at 144 h, 10 micrograms per ml in data set [6] worked out at 100%.

The values are drawn from patent publication US20100210567A1, “USE OF A TUFTSIN AS A THERAPEUTIC AGENT” (priority 2007, published 2010).
